Results reported in PubChem BioAssay (NCI).
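Step 1: Grow cells in 96-well plates. Step 2: Expose to compound for 48 hours at 5 concentrations. Step 3: Interpolate endpoints linearly; if unreached, use highest concentration. GI50 = concentration required for 50% inhibition of growth. TGI marks complete inhibition of growth.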

What was measured:
Experiment in all cases: NCI anticancer screen, dose series, 48 h
SF-268 CNS = tested on: SF-268 CNS
EKVX NSCLC = tested on: EKVX NSCLC
HOP-62 NSCLC = tested on: HOP-62 NSCLC
MALME-3M melanoma = tested on: MALME-3M melanoma
U251 CNS = tested on: U251 CNS
NCI-H522 lung = tested on: NCI-H522 lung
DU-145 prostate = tested on: DU-145 prostate
RXF 393 renal = tested on: RXF 393 renal
PC-3 prostate = tested on: PC-3 prostate
HL-60(TB) leukemia = tested on: HL-60(TB) leukemia

| SMILES | TGI (SF-268 CNS) | TGI (EKVX NSCLC) | TGI (HOP-62 NSCLC) | TGI (MALME-3M melanoma) | TGI (U251 CNS) | TGI (NCI-H522 lung) | TGI (DU-145 prostate) | TGI (RXF 393 renal) | TGI (PC-3 prostate) | TGI (HL-60(TB) leukemia) | GI50 (SF-268 CNS) | GI50 (EKVX NSCLC) | GI50 (HOP-62 NSCLC) | GI50 (MALME-3M melanoma) | GI50 (U251 CNS) | GI50 (NCI-H522 lung) | GI50 (RXF 393 renal) | GI50 (HL-60(TB) leukemia) | GI50 (DU-145 prostate) | GI50 (PC-3 prostate) |
| --- | --- | --- | --- | --- | --- | --- | --- | --- | --- | --- | --- | --- | --- | --- | --- | --- | --- | --- | --- | --- |
| CC1(C)C2CC3C(C)(C2)C31c1cc(Cl)ccc1N (stereo not drawn) | 28.3 µM | 33 µM | 29.4 µM | 21.3 µM | 28.5 µM | 19.7 µM | 27 µM | 22.9 µM | 27 µM |  |  |  |  |  |  |  |  |  |  |  |
| COc1ccc(C2N(c3ccc(C)c(N=C=O)c3)C(=O)N3C(c4ccc(OC)cc4)N(c4ccc(C)c(N=C=O)c4)C(=O)N23)cc1 (stereo not drawn) | > 100 µM | > 100 µM | > 100 µM | 96.1 µM | > 100 µM |  | > 100 µM | > 100 µM | > 100 µM | > 100 µM |  |  |  |  |  |  |  |  |  |  |
| O=C1C(c2ccccc2)=C(c2ccccc2)C1(Cl)Cl | 12.7 µM | 21.7 µM | 41.9 µM | 7.56 µM | 7.68 µM | 4.51 µM | 24.5 µM |  | 14.3 µM | 2.17 µM |  |  |  |  |  |  |  |  |  |  |
| Clc1ccc(C2SCc3nc4ccccc4n32)cc1 (stereo not drawn) | 88.4 µM | > 100 µM |  | 36.7 µM | 66.2 µM | 44.4 µM |  |  |  | 22.6 µM |  |  |  |  |  |  |  |  |  |  |
| COc1cc2nc(-c3cccs3)nc(N3CCN(c4ccccc4)CC3)c2cc1OC | > 100 µM | > 100 µM | > 100 µM | > 100 µM | > 100 µM | > 100 µM | > 100 µM |  | > 100 µM | > 100 µM |  |  |  |  |  |  |  |  |  |  |
| CCOC(=O)c1ccc2nc3n(c2c1)C(c1c(F)cccc1F)SC3 (stereo not drawn) | > 100 µM | > 100 µM | > 100 µM |  | > 100 µM |  | > 100 µM | > 100 µM | > 100 µM | > 100 µM |  |  |  |  |  |  |  |  |  |  |
| Cc1cc(N(CCC#N)CCC#N)ccc1/C(N=Nc1ccc(C(=O)O)cc1)=N\NC(=O)c1ccccc1 | > 100 µM | > 100 µM | > 100 µM | > 100 µM | > 100 µM | 38.5 µM | > 100 µM | > 100 µM | > 100 µM |  |  |  |  |  |  |  |  |  |  |  |
| CC(=O)/C=C(/C)[O-].CC(=O)/C=C(/C)[O-].CC(=O)[CH-]C(C)=O.CC(=O)[CH-]C(C)=O.[Zr+4] | > 100 µM | > 100 µM | > 100 µM | 32.5 µM | > 100 µM | > 100 µM |  | > 100 µM |  | 71.3 µM | > 100 µM | > 100 µM | > 100 µM | 12.7 µM | > 100 µM | > 100 µM | > 100 µM | 28.8 µM |  |  |
| O=[N+]([O-])c1c(O)c2nonc2c2nn(-c3ccccc3)nc12 | > 100 µM | > 100 µM | > 100 µM | > 100 µM | > 100 µM | > 100 µM | > 100 µM |  | > 100 µM | > 100 µM |  |  |  |  |  |  |  |  |  |  |
| CCCN=C1NC(C)=CSC(Nc2ccccc2)=C1C#N | > 100 µM |  | > 100 µM | > 100 µM | > 100 µM | > 100 µM | > 100 µM | > 100 µM | > 100 µM |  |  |  |  |  |  |  |  |  |  |  |
| Cc1ccc2sc3c(NCCCN)nc4ccccc4c3c(=O)c2c1 | 3.45 µM | 4.09 µM |  | 3.3 µM |  |  | 3.39 µM | 3.02 µM | 3.4 µM | 4.09 µM | 1.74 µM | 1.89 µM |  | 1.74 µM |  |  | 1.52 µM | 2.05 µM | 1.87 µM | 1.71 µM |
| O=C1C(Cl)N(c2ccc([N+](=O)[O-])cc2)C1c1c[nH]c2ccccc12 (stereo not drawn) | > 100 µM | > 100 µM | > 100 µM | > 100 µM | > 100 µM | > 100 µM |  | > 100 µM |  | > 100 µM |  |  |  |  |  |  |  |  |  |  |
| CN(C)C(=O)N1N[C@H](c2ccccc2)[C@@H]1c1ccccc1 |  | > 100 µM | > 100 µM | > 100 µM | > 100 µM | > 100 µM | > 100 µM | > 100 µM | > 100 µM |  |  |  |  |  |  |  |  |  |  |  |
| CCOC(=O)c1sc2nc(SC)nc3c2c1NCN3C | 61.5 µM |  | 47.2 µM | 57.6 µM | 46.9 µM |  | > 100 µM | 32.8 µM | > 100 µM |  |  |  |  |  |  |  |  |  |  |  |
| CCN(CC)/N=C\c1c2ccccc2cc2ccccc12 | > 100 µM | > 100 µM |  | > 100 µM | > 100 µM | 63.7 µM | > 100 µM | 57.3 µM | > 100 µM | > 100 µM |  |  |  |  |  |  |  |  |  |  |
| COC(=O)/C1=C/C=C\C[C@@]2(C)CC(c3ccoc3)OC(=O)[C@@H]2CC[C@H]1C (stereo partly drawn) |  | > 25 µM | > 25 µM | > 25 µM | > 25 µM |  |  | > 25 µM | > 25 µM | > 25 µM |  |  |  |  |  |  |  |  |  |  |
| COc1cc2nc(-c3cccs3)nc(Nc3ccccc3C(=O)NN)c2cc1OC | > 100 µM | > 100 µM | > 100 µM | > 100 µM | > 100 µM | > 100 µM | > 100 µM |  | > 100 µM | > 100 µM |  |  |  |  |  |  |  |  |  |  |
| COP(=O)(CP(=O)(OC)OCCC(C)CCC=C(C)C)OC (stereo not drawn) | > 100 µM | > 100 µM | > 100 µM | > 100 µM | 87.8 µM | > 100 µM |  | > 100 µM | > 100 µM |  |  |  |  |  |  |  |  |  |  |  |
| O=C1Sc2ccccc2C(=O)N2CCSC12 (stereo not drawn) |  |  | > 100 µM | > 100 µM | > 100 µM |  |  | > 100 µM |  | > 100 µM |  |  |  |  |  |  |  |  |  |  |
| O=C(CCCCCNC(=O)c1ccc(Cl)cc1)NO | 57.1 µM | > 100 µM |  | > 100 µM | 24 µM | 15.2 µM | > 100 µM | 19.8 µM | 9 µM | 16.1 µM |  |  |  |  |  |  |  |  |  |  |
| Cc1cc2nc3c(C#N)c(C)c(CCCl)c(Cl)n3c2cc1C | 3.76 µM | 35.6 µM | 4.64 µM | 9.28 µM | > 60.9 µM | > 100 µM | 13.6 µM |  | 12.4 µM | 5.57 µM |  |  |  |  |  |  |  |  |  |  |
| O=c1c(O)c(-c2ccccc2)oc2c(CP(=O)(O)O)cccc12 |  | > 100 µM | > 100 µM | > 100 µM | > 100 µM | > 100 µM | > 100 µM | > 100 µM | > 100 µM |  |  |  |  |  |  |  |  |  |  |  |
